Source: article PMC10994559 (PLOS Neglected Tropical Diseases, 2024)
Where “and” joins values, the source holds several entries; their conditions need not be identical. Identical values can stand only once. Like-named read-outs stand apart in the source and are kept apart here.

What was measured:
T. brucei brucei BSF [1] = assay: T. brucei BSF viability, resazurin reduction; format: cell-based, Trypanosoma brucei brucei; conditions: for EC50: ± SD (Table 2) / ± SE (S3 Table); for viability at 25 µM: read-out: viability, T.brucei (25 µM)
T. brucei brucei BSF [2] = system: T. brucei brucei BSF; parameters: method as in PMID 29425238; conditions: read-out: reported EC50 T. brucei; cited from earlier work
E. histolytica = E. histolytica viability, ATP luminescence (Cell titer glo); format: cell-based, Entamoeba histolytica; conditions: Entamoeba histolytica; for viability at 2.5 µM: read-out: viability, E.histolytica (2.5 µM); for viability at 25 µM: read-out: viability, E.histolytica (25 µM)
Summary of the method: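 E. histolytica strain B2-5 at 2.5x10^4 cells/ml was exposed to compound for 48 h at 37 °C under anaerobic conditions, with viability read as ATP luminescence (CellTiter-Glo). The primary screen used 25 μM in triplicate, and follow-up potency runs used 9–16-point ranges spanning 0.01–100 μM.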

[3] = system: L. infantum promastigotes; assay: L. infantum promastigote viability, resazurin reduction; format: cell-based, Leishmania infantum; conditions: Leishmania infantum, sheet LTC_compound_viability, value ± spread; for viability at 2.5 µM: read-out: viability, L. infantum promastigote (2.5 µM); for viability at 25 µM: read-out: viability, L. infantum promastigote (25 µM)
From the text: (§1) The infectivity of the parasites was boosted by passaging in Balb/c mice and culturing the infected lymph nodes after six weeks. L. infantum (MHOM / BR / 76 / M4192) parasite was passaged in the same media formulation with 0.5% urine.

[4] = system: intracellular L. infantum amastigotes; assay: Parasite rescue assay (intramacrophage, J774 infected with L. infantum); format: cell-based, Leishmania infantum; conditions: for viability at 25 µM: J774, rescue assay in J774, 25 µM, read-out: Residual viability, intracellular L. infantum amastigote (25 µM)
[5] = Cytotoxicity assay J774, resazurin reduction; format: cell-based, murine; conditions: mouse, J774 macrophage cells; for viability at 72 h, 2.5 µM: read-out: viability, J774 (2.5 µM); for viability at 72 h, 25 µM: read-out: viability, J774 (25 µM)
Summary of the method: (§2)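 J774 and HepG2 cells were seeded at 0.5x10^5 cell/well and exposed to serially diluted compounds for 72 h at 37°C, 5% CO2. Viability was read by fluorescence resazurin reduction (λEx 550 nm, λEm 590 nm).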

[6] = system: Murine macrophage cells (J774); assay: Cytotoxicity assay J774, resazurin reduction; format: cell-based; conditions: cytotoxicity, 72 h
Summary of the method: as §2

L. major promastigotes = assay: L. major promastigote viability, resazurin reduction; format: cell-based, Leishmania major; conditions: Leishmania major, read-out: viability, L.major promastigote (25 µM)
From the text: as §1

[7] = system: human hepatocyte carcinoma HepG2 cells; assay: Cytotoxicity assay HepG2, resazurin reduction; format: cell-based; conditions: cytotoxicity, 72 h, read-out: EC50 (CT50) HepG2
Method: Mammalian cell lines (J774 and HepG2) were passaged in RPMI media supplemented with MEM, Pen-Strep (1%) and 10% FCS. Cultures were kept at 37°C incubator with 5% CO2 in filter-cap flasks.
Murine macrophage cells (J774) and human hepatocyte carcinoma HepG2 cells were seeded at 0.5x10^5 cell/well in 384 well plates in triplicate, exposed to serial dilution of compounds, dispensed using an Echo 650 acoustic dispenser (Labcyte). After incubation for 72 h at 37°C, 5% CO2, cell viability was determined using fluorescence resazurin reduction assay (λEx: 550 nm; λEm: 590 nm).

[8] = system: L. major axenic amastigotes; assay: L. major axenic amastigote viability, resazurin reduction; conditions: Leishmania major; for viability at 25 µM: read-out: viability, L.major amastigote (25 µM); for viability at 2.5 µM: read-out: viability, L.major amastigote(2.5 µM)
Summary of the method: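 Axenic L. major LV561 amastigotes were grown in Grace medium with 20% FCS, pH 5.4, at 33°C and seeded at 0.5x10^5 cells/well with compounds for 72 h. Resazurin was then added for 6 h and fluorescence read at ex 550/em 590 nm; hits were retested at 2.5 μM.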

T. cruzi trypomastigotes = assay: T. cruzi viability, resazurin reduction; format: cell-based, Trypanosoma cruzi; conditions: Trypanosoma cruzi; for viability at 2.5 µM: read-out: viability, T.cruzi (2.5 µM); for viability at 25 µM: read-out: viability, T.cruzi (25 µM)
Summary of the method: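 Y-strain trypomastigotes kept in supplemented liver infusion tryptose broth with 10% FCS, pH 7.2, at 28°C. Viability by fluorescence resazurin reduction; single-point screen at 2.5 μM, then 18-concentration dose response. Amphotericin B as control drug.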

[9] = system: intracellular L. infantum amastigotes; assay: Parasite rescue assay (intramacrophage, J774 infected with L. infantum); format: cell-based, Leishmania infantum; conditions: J774, 25 µM; intracellular amastigote; read-out: viability, intracellular L. major amastigote (25 µM)
[10] = Trypanosoma brucei, 2.5 µM, read-out: viability, T.brucei (2.5 µM)
[11] = Trypanosoma brucei, read-out: EC50 T. brucei BSF, dose response, triplicate
[12] = Leishmania infantum, J774, read-out: EC50 L. infantum rescue assay, intramacrophage (J774), 18 concentrations
[13] = read-out: EC50 L. infantum rescue assay, intramacrophage (J774), 18 concentrations

Structure (SMILES) | viability at 2.5 µM (E. histolytica) | viability at 25 µM (E. histolytica) | viability at 2.5 µM (T. brucei brucei BSF [1]; [10]) | viability at 25 µM (T. brucei brucei BSF [1]; Trypanosoma brucei, 25 µM) | viability at 2.5 µM [3] | viability at 25 µM [3] | viability at 72 h, 2.5 µM [5] | viability at 72 h, 25 µM [5] | viability at 25 µM (L. major promastigotes; 72 h) | viability at 25 µM (L. major promastigotes; 25 µM) | viability at 25 µM [8] | viability at 2.5 µM (T. cruzi trypomastigotes) | viability at 25 µM (T. cruzi trypomastigotes) | melting point | viability at 25 µM [9] | other results
NCc1ccc(Oc2ccc3c(c2)COB3O)cc1 [AN3057, reference compound] | – | – | – | – | – | – | – | – | – | – | – | – | – | – | – | Residual viability, T.brucei (2.5 µM) (T. brucei brucei BSF [1]; BSF, 2.5 µM, 72 h): 0.3%; Residual viability, T.brucei (2.5 µM) (T. brucei brucei BSF [1]; BSF, 2.5 µM, 72 h, listed as An3057, 2.5 µM): 0.32±0.58%; Residual viability, T.brucei (25 µM) (T. brucei brucei BSF [1]; BSF, 25 µM, 72 h): -2.85±1.48%; EC50 (T. brucei brucei BSF [1]; dose response, triplicate, read-out: EC50 T. brucei BSF): 0.005 ± 0.002 µM; EC50 (T. brucei brucei BSF [2]): 0.0052 µM
CC(C)(C)OC(=O)NC(Cc1ccccc1)C(O)CNc1cccc(C(F)(F)F)c1 (centres unmarked) [LTC-1025] | 45.9 ± 11.6% | 55.3 ± 4.32% | 78 ± 4.59% | 2.26 ± 1.07% | 55.3 ± 1.69% | 0.7 ± 0.03% | 75.1 ± 3.41% | 98.5 ± 8.61% | 88.3 ± 1.36% | 0.16 ± 0.69% | 21.2 ± 2.05% | 63.1 ± 2.47% | 23.4 ± 2.5% | – | – | EC50 (T. brucei brucei BSF [1]; [11]): 3.7 ± 1.7 µM; EC50 [4, 12]: 2.9 ± 2.9 µM; viability at 25 µM ([4]; Leishmania infantum): 2.8%; EC50 [4, 13]: 2.8 µM and 2.84 µM; EC50 ([6]; Mus musculus, J774, 72 h): > 25 µM; EC50 [6]: > 16 µM; EC50 ([7]; Homo sapiens, HepG2, 72 h): 31.6 ± 1.7 µM; EC50 [7]: 33.8 µM and 31.6 µM; viability at 2.5 µM [8]: 77 ± 1.6%
CC(=O)c1ccc(NC[C@H](O)[C@@H](N)Cc2ccccc2)cc1 [LTC-1031, 1-(4-(((2S,3S)-3-Amino-2-hydroxy-4-phenylbutyl)amino)phenyl)ethan-1-one] | 74.1 ± 12.7% | 105 ± 18.2% | 75.5 ± 4.37% | 2.18 ± 0.95% | 83.7 ± 2.96% | 44.9 ± 6.2% | 95.4 ± 4.41% | -0.69 ± 0.73% | 91.6 ± 2.08% | 62.7 ± 3.51% | 70.9 ± 2.23% | 58.4 ± 1.11% | 59.3 ± 2.74% | 123 to 125 °C | 98 ± 5.56% | –
COc1ccc(NC[C@H](O)[C@@H](N)Cc2ccccc2)cc1 [LTC-1042, (2S,3S)-3-Amino-1-((4-methoxyphenyl)amino)-4-phenylbutan-2-ol] | 106 ± 18% | 125 ± 46.5% | 77.3 ± 2.39% | 2.38 ± 1.15% | 81.7 ± 3.08% | 1.85 ± 0.19% | 93.9 ± 4.73% | 97.8 ± 15.5% | 86.4 ± 2.46% | 0.03 ± 0.1% | 39 ± 23.4% | 61.9 ± 1.61% | 18.6 ± 2.9% | 78 to 80 °C | 67.6 ± 19.8% | –
Cc1cccc(C)c1NC[C@H](O)[C@@H](N)Cc1ccccc1 [LTC-1041, (2S,3S)-3-Amino-1-((2,6-dimethylphenyl)amino)-4-phenylbutan-2-ol] | 85.2 ± 16.3% | 128 ± 30.1% | 70.5 ± 3.15% | 2.06 ± 1.4% | 47.1 ± 4.67% | 20.3 ± 4.1% | 100 ± 2.23% | 85.1 ± 13.9% | 88 ± 2.36% | 15.5 ± 3.29% | 73.8 ± 2.47% | 60 ± 3.23% | 57.2 ± 4.4% | 63 to 65 °C | 71.6 ± 22.8% | –
CC(C)(C)OC(=O)NC(Cc1ccccc1)C(O)CNc1ccc(OC(F)(F)F)cc1 (centres unmarked) [LTC-1023] | 48.5 ± 4.19% | 59.6 ± 14.7% | -1.06 ± 0.31% | 1.99 ± 1% | 67.5 ± 2.44% | 1.5 ± 0.05% | 96.7 ± 4.49% | 75.7 ± 4.65% | 88.6 ± 3.09% | 0.83 ± 1.76% | 18 ± 1.91% | 58.51 ± 0.23% | 23.2 ± 1.67% | – | – | viability at 2.5 µM (T. brucei brucei BSF [1]; Trypanosoma brucei, 72 h, read-out: Residual viability, T.brucei (2.5 µM), BSF, 2.5 µM, 72 h): < 10%; EC50 (T. brucei brucei BSF [1]; [11]): 1.1 ± 1.7 µM; EC50 [4, 12]: 4.1 ± 1.8 µM; viability at 25 µM ([4]; Leishmania infantum): 4.9%; EC50 [4, 13]: 4.08 ± 1.8 µM; EC50 ([6]; Mus musculus, J774, 72 h): > 25 µM; EC50 [6]: > 16 µM; EC50 ([7]; Homo sapiens, HepG2, 72 h): 16.7 ± 1.9 µM; EC50 [7]: 31.6 µM and 16.7 µM; viability at 2.5 µM [8]: 68.4 ± 1.28%
N[C@@H](Cc1ccccc1)[C@@H](O)CNc1ccc(C(F)(F)F)cc1 [LTC-1027, (2S,3S)-3-Amino-4-phenyl-1-((4-(trifluoromethyl)phenyl)amino)butan-2-ol] | 79.1 ± 9.1% | 2.09 ± 3.63% | 11.2 ± 1.8% | 2.27 ± 0.89% | 77.9 ± 1.82% | 0.64 ± 0.3% | 96.1 ± 4.11% | 99.9 ± 8.05% | 72.2 ± 16.2% | -0.24 ± 0.15% | 75.5 ± 3.25% | 61.8 ± 2.34% | 12 ± 0.47% | 105 to 107 °C | 79.3 ± 16.4% | –
